Assay results published in paper PMC4476799, “Englerin A Agonizes the TRPC4/C5 Cation Channels to Inhibit Tumor Cell Line Proliferation” (PLoS ONE, 2015).
pEC50, pIC50: −log10 of the molar value. Read-outs that look alike come from different tables or passages of the source.

Tested on: cancer cell lines from the cancer cell line encyclopedia (CCLE)
Experiment: Cell line profiling (CLiP) proliferation experiment
Assay type: cell-based
Conditions: Homo sapiens; for pIC50: read-out: Crossing Point; for pEC50: read-out: Inflection Point
Method: Compound profiling experiment and data analysis was performed as previously described. Data was imported and plotted using the Tibco Spotfire DXP application. Lines were categorized as sensitive, intermediate and refractory as follows: Amax<-40 & Inflection Point <2 ~ Sensitive, Amax>-20 & Inflection Point >10 ~ Refractory, all else were called Intermediate. Cancer Cell line HG-U133 Plus 2 data was processed and normalized as described. […] Five sets of refractory cell lines were generated from the pool of refractory cell lines trying to match the lineage composition of the set of sensitive cell lines. The limma package was used as previously described to perform the statistical comparison.

[1] = SNU1, cell line SNU-1, stomach, undifferentiated_adenocarcinoma
[2] = SNU-16, cell line SNU-16, stomach, undifferentiated_adenocarcinoma
[3] = SNU-475, cell line SNU-475, liver, hepatocellular_carcinoma
[4] = SNU-C1, SNU-C1 (large_intestine, adenocarcinoma)
[5] = ST486, ST486 (haematopoietic_and_lymphoid_tissue, Burkitt_lymphoma)
[6] = SU-DHL-4, SU-DHL-4 (haematopoietic_and_lymphoid_tissue, diffuse_large_B_cell_lymphoma)
[7] = SU-DHL-5, SU-DHL-5 (haematopoietic_and_lymphoid_tissue, diffuse_large_B_cell_lymphoma)
[8] = SU-DHL-8, SU-DHL-8 (haematopoietic_and_lymphoid_tissue, diffuse_large_B_cell_lymphoma)
[9] = SW48, SW48 (large_intestine, adenocarcinoma)
[10] = SW480, SW480 (large_intestine, adenocarcinoma)
[11] = SW1088, SW 1088 (central_nervous_system, NS)
[12] = SW1417, SW1417 (large_intestine, adenocarcinoma)
[13] = SW-620, SW620 (large_intestine, adenocarcinoma)
[14] = TE-11, TE-11 (oesophagus, squamous_cell_carcinoma)
[15] = TE-15, TE-15 (oesophagus, squamous_cell_carcinoma)
[16] = TOV112D, TOV-112D (ovary, endometrioid_carcinoma)
[17] = WSUDLCL2, WSU-DLCL2 cell line, haematopoietic_and_lymphoid_tissue, diffuse_large_B_cell_lymphoma
[18] = ZR-75-1, ZR-75-1 cell line, breast, ductal_carcinoma

CC(C)[C@@]12C[C@@H](O)[C@@](C)(O1)[C@@H]1CC[C@@H](C)[C@H]1[C@@H]2OC(=O)/C=C/c1ccccc1 [Englerin B]
pIC50 [1]: < 4.52
pEC50 [1]: 4.92
pEC50 (SNU-16, SNU-16 cells): 4.87
pIC50 [2]: 4.85
pEC50 [2]: 4.87
pIC50 (SNU-182, SNU-182 (liver)): < 4.52
pIC50 (SNU-182, cell line SNU-182, liver, hepatocellular_carcinoma): < 4.52
pIC50 (SNU-449, SNU-449 (liver)): 4.72
pIC50 (SNU-449, cell line SNU-449, liver, hepatocellular_carcinoma): 4.72
pIC50 (SNU-475, cell line SNU-475 (liver, hepatocellular_carcinoma)): < 4.52
pIC50 [3]: < 4.52
pEC50 [3]: 4.89
pIC50 [4]: < 4.52
pEC50 [4]: 4.83
pIC50 (SNU-C1, SNU-C1 cells): < 4.52
pEC50 (SNU-C1, SNU-C1 cells): 4.83
pIC50 [5]: 4.87
pEC50 [5]: 4.87
pIC50 (SU-DHL10, SU-DHL-10 (haematopoietic_and_lymphoid_tissue, diffuse_large_B_cell_lymphoma)): 4.73
pIC50 [6]: 4.69
pEC50 [6]: 4.69
pIC50 [7]: 4.83
pEC50 [7]: 4.83
pIC50 [8]: 4.84
pEC50 [8]: 4.88
pIC50 [9]: 4.54
pEC50 [9]: 4.54
pIC50 (SW480, SW480 (large_intestine)): < 4.52
pIC50 [10]: < 4.52
pEC50 [10]: 5.05
pIC50 (SW837, SW837 (large_intestine)): < 4.52
pIC50 (SW837, SW837 (large_intestine, adenocarcinoma)): < 4.52
pIC50 (SW948, SW948 (large_intestine)): < 4.52
pIC50 (SW948, SW948 (large_intestine, adenocarcinoma)): < 4.52
pIC50 (SW1088, SW 1088 (central_nervous_system)): < 4.52
pIC50 [11]: < 4.52
pEC50 [11]: 5.62
pIC50 (SW1353, SW 1353 (bone)): < 4.52
pIC50 (SW1353, SW 1353 (bone, NS)): < 4.52
pEC50 (SW1353, SW 1353 (bone, NS)): 4.82
pIC50 [12]: 4.58
pEC50 [12]: 4.58
pIC50 (SW1573, SW 1573 (lung)): < 4.52
pIC50 (SW1573, SW 1573 (lung, squamous_cell_carcinoma)): < 4.52
pIC50 (SW1783, SW 1783 (central_nervous_system, astrocytoma_Grade_III)): < 4.52
pIC50 (SW1783, cell line SW 1783 (central_nervous_system, astrocytoma_Grade_III)): < 4.52
pIC50 (SW1990, SW 1990 (pancreas)): < 4.52
pIC50 (SW1990, SW 1990 (pancreas, ductal_carcinoma)): < 4.52
pIC50 [13]: 4.89
pEC50 [13]: 4.92
pIC50 (T47D, T-47D (breast)): < 4.52
pIC50 (T47D, T-47D (breast, ductal_carcinoma)): < 4.52
pIC50 (T98G, T98G (central_nervous_system)): < 4.52
pIC50 (T98G, T98G (central_nervous_system, astrocytoma_Grade_IV)): < 4.52
pIC50 (TE-10, TE-10 (oesophagus)): < 4.52
pIC50 (TE-10, TE-10 (oesophagus, squamous_cell_carcinoma)): < 4.52
pIC50 (TE-11, TE-11 (oesophagus)): 4.86
pIC50 [14]: 4.86
pEC50 [14]: 4.87
pIC50 [15]: 4.58
pEC50 [15]: 4.58
pIC50 (THP-1, THP-1 (haematopoietic_and_lymphoid_tissue, acute_myeloid_leukaemia)): 4.75
pIC50 (TOV21G, TOV-21G (ovary, clear_cell_carcinoma)): 4.66
pIC50 [16]: 4.71
pEC50 [16]: 4.67
pIC50 (U-118-MG, U-118 MG (central_nervous_system, astrocytoma)): < 4.52
pIC50 (U-118-MG, cell line U-118 MG): < 4.52
pIC50 (U-251, U-251 MG (central_nervous_system)): < 4.52
pIC50 (U-251, U-251 MG (central_nervous_system, astrocytoma)): < 4.52
pIC50 (U-937, U-937 (haematopoietic_and_lymphoid_tissue, malignant_histiocytosis)): 4.84
pIC50 (UACC-62, UACC-62 (skin)): < 4.52
pIC50 (UACC-62, UACC-62 cell line, skin, NS): < 4.52
pIC50 (UACC-257, UACC-257 (skin, NS)): 4.70
pIC50 (UMUC3, UM-UC-3 cell line, urinary_tract, transitional_cell_carcinoma): 4.59
pIC50 (VM-CUB-1, VM-CUB1 cell line, urinary_tract, transitional_cell_carcinoma): 4.72
pIC50 (WM 266-4, WM-266-4 (skin)): < 4.52
pIC50 (WM 266-4, WM-266-4 cell line, skin, NS): < 4.52
pIC50 (WM793, WM-793 (skin)): < 4.52
pIC50 (WM793, WM-793 cell line, skin, NS): < 4.52
pIC50 (WM-115, WM-115 (skin)): < 4.52
pIC50 (WM-115, WM-115 cell line, skin, NS): < 4.52
pIC50 [17]: 4.85
pEC50 [17]: 4.85
pIC50 (YAPC, YAPC (pancreas)): < 4.52
pIC50 (YAPC, YAPC cell line, pancreas, NS): < 4.52
pIC50 (YKG-1, YKG1 (central_nervous_system)): < 4.52
pIC50 (YKG-1, YKG1 cell line, central_nervous_system, astrocytoma_Grade_IV): < 4.52
pIC50 (Z-138, Z-138 (haematopoietic_and_lymphoid_tissue)): 4.82
pIC50 (Z-138, Z-138 cell line, haematopoietic_and_lymphoid_tissue, mantle_cell_lymphoma): 4.82
pIC50 [18]: 4.68
pEC50 [18]: 4.89
pIC50 (ZR-75-30, ZR-75-30 (breast)): < 4.52
